Key:
Test in all cases: relative viability (nuclei count vs DMSO), 5 days (fraction); higher = more cells survive
Trametinib + Bortezomib = compound: CC(=O)Nc1cccc(-n2c(=O)n(C3CC3)c(=O)c3c(Nc4ccc(I)cc4F)n(C)c(=O)c(C)c32)c1 [Trametinib] + CC(C)C[C@H](NC(=O)[C@H](Cc1ccccc1)NC(=O)c1cnccn1)B(O)O [Bortezomib] (partner 0.002 µM)
Procedure, shortened: (§1)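 The day after seeding in 1536-well plates, lung cancer cell lines were treated by pin tool with a single drug, or with a fixed anchor-drug dose together with five library-drug doses (not always all listed) in √10 steps. After 5 days, a combined fix-and-stain solution (final 0.05% Triton X-100, 1% formaldehyde, 1 ug/ml Hoechst) was added. Nuclei counted on 4× images gave relative viability as treated counts over vehicle counts, reported as the median of duplicate plates.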

Trametinib + Luminespib = compound: CC(=O)Nc1cccc(-n2c(=O)n(C3CC3)c(=O)c3c(Nc4ccc(I)cc4F)n(C)c(=O)c(C)c32)c1 [Trametinib] + CCNC(=O)c1noc(-c2cc(C(C)C)c(O)cc2O)c1-c1ccc(CN2CCOCC2)cc1 [Luminespib] (partner 0.01 µM)
Procedure, shortened: as §1

[1] = compound: CN1C=C(C2=CC=CC=C21)/C=C\3/C4=C(C=CC=N4)NC3=O + CC(=O)Nc1cccc(-n2c(=O)n(C3CC3)c(=O)c3c(Nc4ccc(I)cc4F)n(C)c(=O)c(C)c32)c1 [Trametinib] (partner 0.02 µM)
Procedure, shortened: as §1

[2] = compound: CN1C=C(C2=CC=CC=C21)/C=C\3/C4=C(C=CC=N4)NC3=O + Cc1nc(NC(=O)N2CCC[C@H]2C(N)=O)sc1-c1ccnc(C(C)(C)C(F)(F)F)c1 [Alpelisib] (partner 2 µM)
Procedure, shortened: as §1

## UMC-11
Trametinib + Bortezomib; first compound 0.0025 µM
  relative viability: 0.777
Trametinib + Bortezomib; first compound 0.007906 µM
  relative viability: 0.836
Trametinib + Bortezomib; first compound 0.025 µM
  relative viability: 0.254
Trametinib + Bortezomib; first compound 0.07906 µM
  relative viability: 0.837
Trametinib + Bortezomib; first compound 0.25 µM
  relative viability: 0.663
Trametinib + Luminespib; first compound 0.0025 µM
  relative viability: 1.05
Trametinib + Luminespib; first compound 0.007906 µM
  relative viability: 1.08
Trametinib + Luminespib; first compound 0.025 µM
  relative viability: 0.951
Trametinib + Luminespib; first compound 0.07906 µM
  relative viability: 1.04
Trametinib + Luminespib; first compound 0.25 µM
  relative viability: 0.945
[1]; first compound 0.02 µM
  relative viability: 0.638
[1]; first compound 0.06325 µM
  relative viability: 0.549
[1]; first compound 0.2 µM
  relative viability: 0.552
[1]; first compound 0.6325 µM
  relative viability: 0.671
[1]; first compound 2 µM
  relative viability: 0.78
[2]; first compound 0.02 µM
  relative viability: 0.725
[2]; first compound 0.06325 µM
  relative viability: 1.02
[2]; first compound 0.2 µM
  relative viability: 1.01
[2]; first compound 0.6325 µM
  relative viability: 1.05
[2]; first compound 2 µM
  relative viability: 1.12
